One data set relates to GLP-1 and PYY. The data set is described as follows: Direct colonic delivery, secretion of gut hormones from the colon. The format is in vivo. As to conditions: upper gut bypassed.
Another data set concerns rat liver. The settings on record: butyrate formed from carbohydrates via fermentation in the rat colon; cited from earlier work.
Data set [1] concerns cell lines derived from L-cells. As to conditions: cited from earlier work.
In a further data set the test system is L-cells in the colon. The settings on record: dosed orally and unformulated; cited from earlier work.
The next data set relates to GLP-1. The data set is described as follows: Colon delivered L-glutamine, GLP-1 secretion in human diabetic subjects. Format: in vivo.

As to `CCCC(=O)O` [butyric acid], in the data set on GLP-1 and PYY, the “secretion of GLP-1 from the colon” value is reported as “increase” and the “secretion of PYY from the colon” value was “increase”. The “fat in the rat liver” value in the data set with rat liver is “reduces”. In addition, the “secretion of gut hormones” value in data set [1] is on record as “induce secretion”. The minimum effective amount in the data set with L-cells in the colon is reported as 30 grams.
`CCC(=O)O` [propionic acid]: in the data set with GLP-1 and PYY, the “secretion of GLP-1 from the colon” value is given as “increase” and the “secretion of PYY from the colon” value is recorded as “increase”. Also, the “secretion of gut hormones” value in data set [1] was “induce secretion”. Further, the minimum effective amount with L-cells in the colon is 30 grams.
As to `NC(=O)CC[C@H](N)C(=O)O` [L-glutamine], in the data set with GLP-1 and PYY, the “secretion of GLP-1 from the colon” value is “increase” and the “secretion of PYY from the colon” value is recorded as “increase”. In addition, the “secretion of gut hormones” value in data set [1] is given as “induce secretion”. The “secretion of GLP-1” value with GLP-1 is listed as “increased”. In the data set with L-cells in the colon, the minimum effective amount was 30 grams and the toxic dose is recorded as not below 30 grams.

The values above are taken from patent publication US9314444B2, “Composition and method for treatment of NASH” (BioKier Inc., priority 2009, dated 2016).
